Assay results published in US4376116A, “Polyamine biosynthesis inhibitors” (Research Corporation, priority 1981, dated 1983).
Read-outs that look alike come from different tables or passages of the source.

Columns and labels:
SAM-dependent methylases = settings: cited from earlier work
[1] = biological target: T1, rat prostate spermine synthase (Rattus norvegicus, UniProt Q3MIE9); assay: Inhibition of rat prostate spermine synthase; assay type: biochemical; settings: for inhibition at 100 µM: second preparation of spermine synthase
T1 construct: with respect to rat prostate spermine synthase; from tissue; host or cells: rat prostate
T1 sequence (Q3MIE9 1-366): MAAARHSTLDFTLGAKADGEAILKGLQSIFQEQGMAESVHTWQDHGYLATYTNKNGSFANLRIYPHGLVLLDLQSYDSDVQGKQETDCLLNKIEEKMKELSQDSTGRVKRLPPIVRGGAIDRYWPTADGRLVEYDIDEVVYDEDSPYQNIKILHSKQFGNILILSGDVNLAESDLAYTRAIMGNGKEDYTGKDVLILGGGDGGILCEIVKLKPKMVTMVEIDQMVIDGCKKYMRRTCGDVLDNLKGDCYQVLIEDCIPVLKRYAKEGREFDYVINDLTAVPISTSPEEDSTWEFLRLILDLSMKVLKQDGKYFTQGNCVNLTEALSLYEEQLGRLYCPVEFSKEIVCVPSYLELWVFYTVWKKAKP
Description: This enzyme catalyzes the synthesis of spermine in the reaction of spermidine with decarboxylated S-adenosylmethionine, presumably by direct nucleophilic attack as shown by the above transition state wherein R is aminopropyl.

[2] = biological target: T2, methylthioadenosine phosphorylase (Rattus norvegicus, UniProt A0A0G2K583); assay: Inhibition of methylthioadenosine (MTA) phosphorylase; assay type: biochemical; settings: for % Inhibition MTA Phosphorylase: methyl thioadenosine 100 μm
T2 construct: In the tests involving MTA phosphorylase, the procedure described by H. Hibasami was employed; from tissue
T2 sequence (A0A0G2K583 1-283): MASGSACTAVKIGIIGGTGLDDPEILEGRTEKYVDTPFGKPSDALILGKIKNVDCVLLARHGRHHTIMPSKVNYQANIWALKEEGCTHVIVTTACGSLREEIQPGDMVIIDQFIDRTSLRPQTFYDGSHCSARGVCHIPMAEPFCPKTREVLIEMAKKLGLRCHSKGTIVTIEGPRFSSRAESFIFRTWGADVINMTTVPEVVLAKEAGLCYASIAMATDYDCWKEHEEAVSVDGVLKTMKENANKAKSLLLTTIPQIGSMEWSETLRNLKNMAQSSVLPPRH
Description: However, they can be readily prepared by coupling 5'-deoxy-5'-chloroadenosine with an appropriate thiol compound. […] (In the tests involving MTA phosphorylase, the procedure described by H. Hibasami was employed at a methyl thioadenosine concentration of 100 μm.)

[3] = biological target: T3, rat prostate spermidine synthase (Rattus norvegicus, UniProt Q99MI5); assay: Inhibition of purified spermidine synthase from rat ventral prostate; assay type: biochemical
T3 construct: purified spermidine synthase obtained from the rat ventral prostate; from tissue; host or cells: rat ventral prostate
T3 sequence (Q99MI5 1-302): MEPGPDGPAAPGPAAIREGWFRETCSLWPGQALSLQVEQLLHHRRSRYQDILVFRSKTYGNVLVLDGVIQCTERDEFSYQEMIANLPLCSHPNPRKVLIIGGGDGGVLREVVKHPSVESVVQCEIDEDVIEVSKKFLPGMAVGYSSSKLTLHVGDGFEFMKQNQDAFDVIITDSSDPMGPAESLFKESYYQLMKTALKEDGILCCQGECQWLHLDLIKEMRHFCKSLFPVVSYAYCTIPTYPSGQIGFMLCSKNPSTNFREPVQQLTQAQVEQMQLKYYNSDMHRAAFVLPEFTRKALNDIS

[4] = Solubility limiting the concentration range; assay type: physicochemical; settings: concentration range limited
aminopropyl transferases = settings: another study; cited from earlier work
[5] = at concentrations as high as 250 μM

| Compound | inhibition of spermine synthase (in words) [1] | % Inhibition Spermine Synthase ([1]; Concentration 50) | % Inhibition Spermine Synthase ([1]; Concentration 100) | % Inhibition Spermine Synthase ([1]; Concentration 250) | % Inhibition MTA Phosphorylase ([2]; Concentration 250) | inhibition of spermidine synthase (in words) [3] | % Inhibition Spermidine Synthase ([3]; Concentration 50, dcSAM 21 μm) | % Inhibition Spermidine Synthase ([3]; Concentration 100, dcSAM 21 μm) | % Inhibition Spermidine Synthase ([3]; Concentration 250, dcSAM 21 μm) | further results |
| --- | --- | --- | --- | --- | --- | --- | --- | --- | --- | --- |
| Nc1ncnc2c1ncn2[C@@H]1O[C@H](CSCC[C@H](N)C(=O)O)[C@@H](O)[C@H]1O [S-adenosyl-L-homocysteine] |  |  |  |  |  |  |  |  |  | inhibition of SAM-dependent methylases (in words) (SAM-dependent methylases; another study): non-specific inhibition; Ki versus Km of S-adenosyl-L-methionine (in words) (SAM-dependent methylases; many methylases, Cantoni et al): considerably less than the Km value for the corresponding sulfonium substrate |
| CCCCCC(CC)[S+](C)C[C@H]1O[C@@H](n2cnc3c(N)ncnc32)[C@H](O)[C@@H]1O (stereo partly drawn) [Compound IIb, S-Adenosyl-3-methylthiooctane] | only modest inhibition | 35% | 56% | 75% | 21% | do not at all inhibit | 7% | 14% | 44% | inhibition at 100 µM [1]: 19% |
| NCCCCCC(O)CCN (stereo not drawn) [1,8-diamine-3-octanol, reference compound] |  |  |  |  |  |  |  |  |  | inhibition of spermine synthase (in words) [1, 5]: completely inactive; inhibition of spermidine synthase (in words) [3, 5]: completely inactive |
| C[S+](C[C@H]1O[C@@H](n2cnc3c(N)ncnc32)[C@H](O)[C@@H]1O)C(CCN)CCCCCN (stereo partly drawn) [IIc, S-Adenosyl-1,8-diamino-3-(methylthio)octane] | only modest inhibition | 40% | 59% | 86% | 25% |  | 84% | 92% | 96% | % Inhibition Spermine Synthase ([1]; Concentration 10): 7%; inhibition at 100 µM [1]: 28%; effect on methylthioadenosine phosphorylase (in words) [2]: neither compound Ic nor IIc has any significant effect; % Inhibition Spermidine Synthase ([3]; Concentration 10, dcSAM 21 μm): 32% |
| CCCCCC(CC)SC[C@H]1O[C@@H](n2cnc3c(N)ncnc32)[C@H](O)[C@@H]1O (stereo partly drawn) [Compound Ib, S-adenosyl-3-thiooctane] | almost no inhibitory activity |  | 22% |  |  | do not at all inhibit |  | 0% |  | % Inhibition Spermine Synthase ([1]; Concentration 25): 11%; % Inhibition MTA Phosphorylase ([2]; Concentration 100): 25%; % Inhibition Spermidine Synthase ([3]; Concentration 25, dcSAM 21 μm): 0%; solubility (in words) [4]: poor solubility |
| NCCCCCC(CCN)SC[C@H]1O[C@@H](n2cnc3c(N)ncnc32)[C@H](O)[C@@H]1O (stereo partly drawn) [Compound Ic, S-Adenosyl-1,8-diamino-3-thiooctane] | almost no inhibitory activity |  |  |  |  | more potent inhibitor of spermidine synthase than the fully charged methyl sulfonium salt IIc | 99% | 99% |  | % Inhibition Spermine Synthase ([1]; Concentration 25): 10%; effect on methylthioadenosine phosphorylase (in words) [2]: neither compound Ic nor IIc has any significant effect; % Inhibition MTA Phosphorylase ([2]; Concentration 10): 3%; % Inhibition MTA Phosphorylase ([2]; Concentration 25): 8%; % Inhibition MTA Phosphorylase ([2]; Concentration 100): 10%; % Inhibition Spermidine Synthase ([3]; Concentration 10, dcSAM 21 μm): 97%; % Inhibition Spermidine Synthase ([3]; Concentration 25, dcSAM 21 μm): 97%; inhibitory specificity against spermidine synthase (in words) ([3]; versus spermine synthase): unusual inhibitory specificity |
| C[S+](C)C[C@H]1O[C@@H](n2cnc3c(N)ncnc32)[C@H](O)[C@@H]1O.[O-][Cl+3]([O-])([O-])[O-] [IIa, Dimethyl-(5'-adenosyl)sulfonium perchlorate] | shows inhibition of spermine synthase | 68% |  | 82% | 30% |  | 0% |  | 6% |  |
| CSC[C@H]1O[C@@H](n2cnc3c(N)ncnc32)[C@H](O)[C@@H]1O [Ia, 5'-methylthioadenosine] | inhibitor of both spermidine synthase and spermine synthase |  |  |  |  | inhibitor of both spermidine synthase and spermine synthase |  |  |  | % Inhibition Spermine Synthase ([1]; Concentration 50, dcSAM 42 μM): 80%; % Inhibition Spermine Synthase ([1]; Concentration 100, dcSAM 42 μM): 98%; MTA Phosphorylase (substrate, in words) [2]: Substrate; inhibition of aminopropyl transferases (in words) (aminopropyl transferases): non-specific inhibition; % Inhibition Spermidine Synthase ([3]; Concentration 50, dcSAM 42 μM): 61%; % Inhibition Spermidine Synthase ([3]; Concentration 100, dcSAM 42 μM): 82% |
